Experimental data from US6461997B1, “Triazole sulfones having herbicidal activity” (Monsanto Technology LLC, priority 1999, dated 2002).

test system: ECHCG (barnyardgrass); experiment: Pre-emergence herbicidal activity, warm season; type: in vivo, Echinochloa crus-galli; conditions: GR80 = lowest tested rate (300, 100, 30, 10 g/ha) with 80% or greater inhibition; approx. 14 days after treating; 30/21° C.
Description: (§1) Tables 5 to 8 summarize results of tests conducted as described below to determine the pre-emergence herbicidal activity, in the form of a GR80 value, of illustrative compounds of this invention. […] Compounds of the invention were typically applied at rates of 300, 100, 30, and 10 g/ha. Where herbicidal activity was evident but 80% inhibition was not achieved at the highest rate tested, an asterisk (*) is shown in the following tables.
(§2) The pre-emergence tests were conducted by the following procedure. Topsoil was sieved to pass through a 1.27 cm screen. Fertilizer was added to the topsoil and the mixture was then sterilized by heating. The topsoil mixture was placed in a pot and compacted to a depth of 1.0 to 1.25 cm from the top of the pot. Seeds of each of several monocotyledonous and dicotyledonous annual plant species were placed on top of the soil. Additional soil was subsequently placed over the seeds to level-fill the pot. A known amount of each test compound dissolved or suspended in an appropriate organic solvent was diluted with a 50:50 mix of acetone and water and applied to the surface of the soil. After treatment the plants were placed in a greenhouse where they received 0.64 cm of overhead irrigation. All subsequent watering consisted of a light overhead mist and/or subirrigation as needed for germination and growth. Tables 5 and 6 below relate to warm season plant species which were placed after pre-emergence treatment in a greenhouse with a 30/21° C. day/night temperature regime. Tables 7 and 8 below relates to cool season plant species placed after pre-emergence treatment in a greenhouse or growth chamber with an 18/13° C. day/night temperature regime.
(§3) Approximately 14 days after planting and treating, the plants were observed and herbicidal efficacy recorded as percent inhibition by comparison with untreated plants.
(§4) The plant species usually regarded as weeds which were utilized in the tests are identified in the tables below according to the following legend, in which “d” indicates a dicotyledonous species and “m” a monocotyledonous species. All monocotyledonous species included in the tests herein are grasses.

| SMILES | Pre-emergence activity (GR80) ECHCG [g/ha] |
| --- | --- |
| CN(C)C(=O)n1cnc(S(=O)(=O)C(F)(F)Br)n1 [Example 37] | 300 |
| CN(C)C(=O)n1cnc(S(=O)(=O)C(F)(F)C(F)(F)Br)n1 [Example 73] | 300 |

test system: SOLNI (black nightshade); experiment: Pre-emergence herbicidal activity, warm season; type: in vivo, Solanum nigrum; conditions: GR80 = lowest tested rate (300, 100, 30, 10 g/ha) with 80% or greater inhibition; approx. 14 days after treating; 30/21° C.
Description: as §1, §2, §3, §4

| SMILES | Pre-emergence activity (GR80) SOLNI [g/ha] |
| --- | --- |
| C#CCN(C)C(=O)n1cnc(S(=O)(=O)C(F)(F)C(F)(F)Br)n1 [Example 78] | 300 |

test system: LAMPU (purple deadnettle); experiment: Pre-emergence herbicidal activity, cool season; type: in vivo, Lamium purpureum; conditions: lowest tested rate with 80% or greater inhibition; rates 300, 100, 30, 10 g/ha; about 14 days
Description: as §1, §2, §3, §4

| SMILES | Pre-emergence activity GR80, LAMPU [g/ha] |
| --- | --- |
| CN(C)C(=O)n1cnc(S(=O)(=O)C(F)(F)Br)n1 [Example 37] | 300 |
| C#CCN(C)C(=O)n1cnc(S(=O)(=O)C(F)(F)C(F)(F)Br)n1 [Example 78] | 100 |
| CN(C)C(=O)n1cnc(S(=O)(=O)C(F)(F)C(F)(F)Br)n1 [Example 73] | 300 |

test system: SORHA (johnsongrass (seedling)); experiment: Pre-emergence herbicidal activity, warm season; type: in vivo, Sorghum halepense; conditions: GR80 = lowest tested rate (300, 100, 30, 10 g/ha) with 80% or greater inhibition; approx. 14 days after treating; 30/21° C.
Description: as §1, §2, §3, §4

| SMILES | Pre-emergence activity (GR80) SORHA [g/ha] |
| --- | --- |
| CN(C)C(=O)n1cnc(S(=O)(=O)C(F)(F)Br)n1 [Example 37] | 300 |
| CN(C)C(=O)n1cnc(S(=O)(=O)C(F)(F)C(F)(F)Br)n1 [Example 73] | 300 |

test system: GALAP (catchweed bedstraw); experiment: Pre-emergence herbicidal activity, cool season; type: in vivo, Galium aparine; conditions: lowest tested rate with 80% or greater inhibition; rates 300, 100, 30, 10 g/ha; about 14 days
Description: as §1, §2, §3, §4

| SMILES | Pre-emergence activity GR80, GALAP |
| --- | --- |
| CN(C)C(=O)n1cnc(S(=O)(=O)C(F)(F)Br)n1 [Example 37] | [empty] |
| C#CCN(C)C(=O)n1cnc(S(=O)(=O)C(F)(F)C(F)(F)Br)n1 [Example 78] | [empty] |
| CN(C)C(=O)n1cnc(S(=O)(=O)C(F)(F)C(F)(F)Br)n1 [Example 73] | 100 g/ha |

test system: SINAR (wild mustard); experiment: Pre-emergence herbicidal activity, cool season; type: in vivo, Sinapis arvensis; conditions: lowest tested rate with 80% or greater inhibition; rates 300, 100, 30, 10 g/ha; about 14 days
Description: as §1, §2, §3, §4

| SMILES | Pre-emergence activity GR80, SINAR |
| --- | --- |
| CN(C)C(=O)n1cnc(S(=O)(=O)C(F)(F)Br)n1 [Example 37] | [empty] |
| C#CCN(C)C(=O)n1cnc(S(=O)(=O)C(F)(F)C(F)(F)Br)n1 [Example 78] | 30 g/ha |
| CN(C)C(=O)n1cnc(S(=O)(=O)C(F)(F)C(F)(F)Br)n1 [Example 73] | 100 g/ha |

test system: VERPE (creeping speedwell); experiment: Pre-emergence herbicidal activity, cool season; type: in vivo, Veronica persicaria; conditions: lowest tested rate with 80% or greater inhibition; rates 300, 100, 30, 10 g/ha; about 14 days
Description: as §1, §2, §3, §4

| SMILES | Pre-emergence activity GR80, VERPE |
| --- | --- |
| CN(C)C(=O)n1cnc(S(=O)(=O)C(F)(F)Br)n1 [Example 37] | [empty] |
| C#CCN(C)C(=O)n1cnc(S(=O)(=O)C(F)(F)C(F)(F)Br)n1 [Example 78] | 30 g/ha |
| CN(C)C(=O)n1cnc(S(=O)(=O)C(F)(F)C(F)(F)Br)n1 [Example 73] | 100 g/ha |

test system: POROL (common purslane); experiment: Pre-emergence herbicidal activity, warm season; type: in vivo, Portulaca oleracea; conditions: GR80 = lowest tested rate (300, 100, 30, 10 g/ha) with 80% or greater inhibition; approx. 14 days after treating; 30/21° C.
Description: as §1, §2, §3, §4

| SMILES | Pre-emergence activity (GR80) POROL [g/ha] |
| --- | --- |
| CN(C)C(=O)n1cnc(S(=O)(=O)C(F)(F)Br)n1 [Example 37] | 300 |

test system: STEME (common chickweed); experiment: Pre-emergence herbicidal activity, cool season; type: in vivo, Stellaria media; conditions: lowest tested rate with 80% or greater inhibition; rates 300, 100, 30, 10 g/ha; about 14 days
Description: as §1, §2, §3, §4

| SMILES | Pre-emergence activity GR80, STEME |
| --- | --- |
| CN(C)C(=O)n1cnc(S(=O)(=O)C(F)(F)Br)n1 [Example 37] | 300 g/ha |
| C#CCN(C)C(=O)n1cnc(S(=O)(=O)C(F)(F)C(F)(F)Br)n1 [Example 78] | [empty] |
| CN(C)C(=O)n1cnc(S(=O)(=O)C(F)(F)C(F)(F)Br)n1 [Example 73] | 300 g/ha |

test system: PANMI (wild proso millet); experiment: Pre-emergence herbicidal activity, warm season; type: in vivo, Panicum miliaceum; conditions: GR80 = lowest tested rate (300, 100, 30, 10 g/ha) with 80% or greater inhibition; approx. 14 days after treating; 30/21° C.
Description: as §1, §2, §3, §4

| SMILES | Pre-emergence activity (GR80) PANMI [g/ha] |
| --- | --- |
| CN(C)C(=O)n1cnc(S(=O)(=O)C(F)(F)Br)n1 [Example 37] | 300 |
| CN(C)C(=O)n1cnc(S(=O)(=O)C(F)(F)C(F)(F)Br)n1 [Example 73] | 100 |

test system: DIGSA (large crabgrass); experiment: Pre-emergence herbicidal activity, warm season; type: in vivo, Digitaria sanguinalis; conditions: GR80 = lowest tested rate (300, 100, 30, 10 g/ha) with 80% or greater inhibition; approx. 14 days after treating; 30/21° C.
Description: as §1, §2, §3, §4

| SMILES | Pre-emergence activity (GR80) DIGSA [g/ha] |
| --- | --- |
| CN(C)C(=O)n1cnc(S(=O)(=O)C(F)(F)Br)n1 [Example 37] | 300 |

test system: SASKR (russian thistle); experiment: Pre-emergence herbicidal activity, cool season; type: in vivo, Salsola kali; conditions: lowest tested rate with 80% or greater inhibition; rates 300, 100, 30, 10 g/ha; about 14 days
Description: as §1, §2, §3, §4

| SMILES | Pre-emergence activity GR80, SASKR |
| --- | --- |
| CN(C)C(=O)n1cnc(S(=O)(=O)C(F)(F)Br)n1 [Example 37] | [empty] |
| C#CCN(C)C(=O)n1cnc(S(=O)(=O)C(F)(F)C(F)(F)Br)n1 [Example 78] | 100 g/ha |
| CN(C)C(=O)n1cnc(S(=O)(=O)C(F)(F)C(F)(F)Br)n1 [Example 73] | 100 g/ha |

test system: SETVI (green foxtail); experiment: Pre-emergence herbicidal activity, cool season; type: in vivo, Setaria viridis; conditions: GR80 = lowest tested rate (300, 100, 30, 10 g/ha) with 80% or greater inhibition; approx. 14 days after treating; 18/13° C.
Description: as §1, §2, §3, §4

| SMILES | Pre-emergence activity (GR80) SETVI [g/ha] |
| --- | --- |
| CN(C)C(=O)n1cnc(S(=O)(=O)C(F)(F)C(F)(F)Br)n1 [Example 73] | 300 |

test system: AGSST (creeping bentgrass); experiment: Pre-emergence herbicidal activity, cool season; type: in vivo, Agrostis stolonifera; conditions: GR80 = lowest tested rate (300, 100, 30, 10 g/ha) with 80% or greater inhibition; approx. 14 days after treating; 18/13° C.
Description: as §1, §2, §3, §4

| SMILES | Pre-emergence activity (GR80) AGSST [g/ha] |
| --- | --- |
| CN(C)C(=O)n1cnc(S(=O)(=O)C(F)(F)Br)n1 [Example 37] | 100 |
| CN(C)C(=O)n1cnc(S(=O)(=O)C(F)(F)C(F)(F)Br)n1 [Example 73] | 100 |

test system: POLCO (wild buckwheat); experiment: Pre-emergence herbicidal activity, cool season; type: in vivo, Polygonum convolvulus; conditions: lowest tested rate with 80% or greater inhibition; rates 300, 100, 30, 10 g/ha; about 14 days
Description: as §1, §2, §3, §4

| SMILES | Pre-emergence activity GR80, POLCO |
| --- | --- |
| CN(C)C(=O)n1cnc(S(=O)(=O)C(F)(F)Br)n1 [Example 37] | [empty] |
| C#CCN(C)C(=O)n1cnc(S(=O)(=O)C(F)(F)C(F)(F)Br)n1 [Example 78] | [empty] |
| CN(C)C(=O)n1cnc(S(=O)(=O)C(F)(F)C(F)(F)Br)n1 [Example 73] | [empty] |
